Bounds are passed on as bounds.

The series relates to JNK1 mRNA. As to the kind of experiment: Northern assay of JNK1 mRNA expression in A549 cells. It counts as cell-based, human. The note with it: for % EXPRESSION: relative to LIPOFECTIN-only control; for Normalized % Control: JNK1 mRNA dose response. As to the method: In order to evaluate the activity of potential JNK-modulating oligonucleotides, human lung carcinoma cell line A549 (American Type Culture Collection, Rockville, Md. No. ATCC CCL-185) cells or other cell lines as indicated in the Examples, were grown and treated with oligonucleotides or control solutions as detailed below. After harvesting, cellular extracts were prepared and examined for specific JNK mRNA levels or JNK protein levels (i.e., Northern or Western assays, respectively). In all cases, “% expression” refers to the amount of JNK-specific signal in an oligonucleotide-treated cell relative to an untreated cell (or a cell treated with a control solution that lacks oligonucleotide), and “% inhibition” is calculated as
100%−% Expression =% Inhibition.
Northern Assays: The mRNA expression of each JNK protein was determined by using a nucleic acid probe specifically hybridizable thereto. Nucleic acid probes specific for JNK1, JNK2 and JNK3 are described in Examples 3, 4 and 5, respectively. The probes were radiolabelled by means well known in the art (see, e.g., Short Protocols in Molecular Biology, 2nd Ed., Ausubel et al., Eds., John Wiley & Sons, New York, 1992, pages 3-11 to 2-3-44 and 4-17 to 4-18; Ruth, Chapter 6 In: Methods in Molecular Biology, Vol. 26: Protocols for Oligonucleotide Conjugates, Agrawal, ed., Humana Press Inc., Totowa, N.J., 1994, pages 167-185; and Chapter 10 In: Molecular Cloning: A Laboratory Manual, 2nd Ed., Sambrook et al., Eds., pages 10.1-10.70). The blots were stripped and reprobed with a ^32P-labeled glyceraldehyde 3-phosphate dehydrogenase (G3PDH) probe (Clontech Laboratories, Inc., Palo Alto, Calif.) in order to confirm equal loading of RNA and to allow the levels of JNK transcripts to be normalized with regard to the G3PDH signals.
A549 cells were grown in T-75 flasks until 80-90% confluent. At this time, the cells were washed twice with 10 mL of media (DMEM), followed by the addition of 5 mL of DMEM containing 20 μg/mL of LIPOFECTIN™ (i.e., 1:1 (w/w) DOTMA/DOPE, Life Technologies, Gaithersburg, Md.; DOTMA=N-[1-(2,3-dioleyoxy)propyl]-N,N,N-trimethylammonium chloride; DOPE=dioleoyl phosphatidylethanolamine). The oligonucleotides were added from a 10 μM stock solution to a final concentration of 400 nM, and the two solutions were mixed by swirling the flasks. As a control, cells were treated with LIPOFECTIN™ without oligonucleotide under the same conditions and for the same times as the oligonucleotide-treated samples. After 4 hours at 37° C., the medium was replaced with fresh DMEM containing 10% serum. The cells were allowed to recover for 18 hours. Total cellular RNA was then extracted in guanidinium, subject to gel electrophoresis and transferred to a filter according to techniques known in the art (see, e.g., Chapter 7 In: Molecular Cloning: A Laboratory Manual, 2nd Ed., Sambrook et al., Eds., pages 7.1-7.87, and Short Protocols in Molecular Biology, 2nd Ed., Ausubel et al., Eds., John Wiley & Sons, New York, 1992, pages 2-24 to 2-30 and 4-14 to 4-29). Filters were typically hybridized overnight to a probe specific for the particular JNK gene of interest in hybridization buffer (25 mM KPO4, pH 7.4; 5×SSC; 5× Denhardt's solution, 100 μg/ml Salmon sperm DNA and 50% formamide) (Alahari et al., Nucl. Acids Res., 1993, 21, 4079). This was followed by two washes with 1×SSC, 0.1% SDS and two washes with 0.25×SSC, 0.1% SDS. Hybridizing bands were visualized by exposure to X-OMAT AR film and quantitated using a PHOSPHORIMAGER™ essentially according to the manufacturer's instructions (Molecular Dynamics, Sunnyvale, Calif.)
B. JNK1-specific probes: In initial screenings of a set of oligonucleotides derived from the JNK1 sequence (Table 2) for biological activity, a cDNA clone of JNK1 (Derijard et al., Cell, 1994, 76, 1025) was radiolabeled and used as a JNK1-specific probe in Northern blots. […]

[1] abbreviates: JNK1 mRNA, A549 cells, 400 nM oligonucleotide.
Where [2] appears, read: JNK1 mRNA, A549 cells, 400 nM oligonucleotide, 100% - % expression.

For “11978 (antisense ATTCTTTCCACTCTTCTATT; DNA, all phosphorothioate, methylation of C not given here) [compound 11978]”, under setting [1], the “% EXPRESSION” value came to 85%. Besides, the “% INHIBITION” value under setting [2] came to 15%.
Taken in the same sequence, the figures for “11979 (antisense CTCCTCCAAGTCCATAACTT; DNA, all phosphorothioate, methylation of C not given here) [compound 11979]” were 90% and 10%.
Consider “11980 (antisense CCCGTATAACTCCATTCTTG; DNA, all phosphorothioate, methylation of C not given here) [compound 11980]”, for which the “% EXPRESSION” value under setting [1] was found to be 85%. The “% INHIBITION” value under setting [2] was determined as 15%.
Turning to “11981 (antisense CTGTGCTAAAGGAGAGGGCT; DNA, all phosphorothioate, methylation of C not given here) [compound 11981]”, under setting [1], the “% EXPRESSION” value is 62%. For the same substance, the “% INHIBITION” value under setting [2] came to 28%.
“11982 (antisense ATGATGGATGCTGAGAGCCA; DNA, all phosphorothioate, methylation of C not given here) [compound 11982]”: the “% EXPRESSION” value under setting [1] is listed as 13%.
Still for that read-out and setting: then “11983 (antisense GTTGACATTGAAGACACATC; DNA, all phosphorothioate, methylation of C not given here) [compound 11983]”, with 40%.
Regarding “11984 (antisense CTGTATCAGAGGCCAAAGTC; DNA, all phosphorothioate, methylation of C not given here) [compound 11984]”, under setting [1], the “% EXPRESSION” value came out at 53%. For the same substance, the “% INHIBITION” value under setting [2] is reported as 47%.
Turning to “11985 (antisense TGCTGCTTCTAGACTGCTGT; DNA, all phosphorothioate, methylation of C not given here) [compound 11985]”, the “% EXPRESSION” value under setting [1] worked out at 47%.
Take “11986 (antisense AGTCATCTACAGCAGCCCAG; DNA, all phosphorothioate, methylation of C not given here) [compound 11986]”: the “% EXPRESSION” value under setting [1] came to 90%. In addition, under setting [2], the “% INHIBITION” value worked out at 10%.
Regarding “11987 (antisense CCATCCCTCCCACCCCCCGA; DNA, all phosphorothioate, methylation of C not given here) [compound 11987]”, the “% EXPRESSION” value under setting [1] was found to be 47%.
With “11988 (antisense ATCAATGACTAACCGACTCC; DNA, all phosphorothioate, methylation of C not given here) [compound 11988]”, the “% EXPRESSION” value under setting [1] is recorded as 78%. The “% INHIBITION” value under setting [2] turned out to be 22%.
As to “11989 (antisense CAAAAATAAGACCACTGAAT; DNA, all phosphorothioate, methylation of C not given here) [compound 11989]”, the “% EXPRESSION” value under setting [1] is on record as 60%. For the same substance, under setting [2], the “% INHIBITION” value worked out at 40%.
For the substance “12463 (antisense CACGCTTGCTTCTGCTCATG; DNA, all phosphorothioate, methylation of C not given here) [compound 12463]”, the “% EXPRESSION” value under setting [1] is recorded as 23%.
Regarding “12464 (antisense CGGCTTAGCTTCTTGATTGC; DNA, all phosphorothioate, methylation of C not given here) [compound 12464]”, the “% EXPRESSION” value under setting [1] is listed as 18%.
On to “12538 (antisense CCCGCTTGGCATGAGTCTGA; chemistry not fully specified) [compound 12538]”, for which the “% EXPRESSION” value under setting [1] is listed as 33%.
As to “12548 (antisense ATTTGCATCCATGAGCTCCA; DNA, all phosphorothioate, methylation of C not given here) [compound 12548]”, the “% EXPRESSION” value under setting [1] came to 5%.
“12549 (antisense CGTTCCTGCAGTCCTGGCCA; DNA, all phosphorothioate, methylation of C not given here) [compound 12549]”: under setting [1], the “% EXPRESSION” value is given as 28%.
Take “12550 (antisense GGATGACCTCGGGTGCTCTG; DNA, all phosphorothioate, methylation of C not given here) [compound 12550]”: under setting [1], the “% EXPRESSION” value is 40%.
On to “12551 (antisense CCCATAATGCACCCCACAGA; DNA, all phosphorothioate, methylation of C not given here) [compound 12551]”, for which the “% EXPRESSION” value under setting [1] is reported as 52%. Besides, under setting [2], the “% INHIBITION” value came to 48%.
Turning to “12552 (antisense CGGGTGTTGGAGAGCTTCAT; DNA, all phosphorothioate, methylation of C not given here) [compound 12552]”, the “% EXPRESSION” value under setting [1] was found to be 34%.
Consider “12553 (antisense TTTGGTGGTGGAGCTTCTGC; DNA, all phosphorothioate, methylation of C not given here) [compound 12553]”, for which the “% EXPRESSION” value under setting [1] is 25%.
The same measure, in the same setting: then “12554 (antisense GGCTGCCCCCGTATAACTCC; DNA, all phosphorothioate, methylation of C not given here) [compound 12554]”, with 11%; and “12555 (antisense TGCTAAAGGAGAGGGCTGCC; DNA, all phosphorothioate, methylation of C not given here) [compound 12555]”, with 27%; and “12556 (antisense AGGCCAAAGTCGGATCTGTT; DNA, all phosphorothioate, methylation of C not given here) [compound 12556]”, with 41%.
Regarding “12557 (antisense CCACCCCCCGATGGCCCAAG; DNA, all phosphorothioate, methylation of C not given here) [compound 12557]”, the “% EXPRESSION” value under setting [1] came out at 29%.
Take “14320 (sense CCAAGCGGGCCTACAGAGAG; DNA, all phosphorothioate, methylation of C not given here) [compound 14320]”: the “Normalized % Control” value (50 nM) turned out to be 103.6%, the “Normalized % Control” value (100 nM) amounted to 76.3%, the “Normalized % Control” value (200 nM) is on record as 98.9% and the “Normalized % Control” value (400 nM) was determined as 97.1%.
Turning to “14321 (CTTTCCGTTGGACCCCTGGG; DNA, all phosphorothioate, methylation of C not given here) [compound 14321]”, the “Normalized % Control” value (50 nM) turned out to be 91.8%, the “Normalized % Control” value (100 nM) came to 94.1%, the “Normalized % Control” value (200 nM) came to 100.2% and the “Normalized % Control” value (400 nM) is 79.2%.
For “CTC-TCT-GTA-GGC-CCG-CTT-GG (CTCTCTGTAGGCCCGCTTGG; chemistry not given here) [ISIS 12539]”, the “% INHIBITION” value is listed as “greater than 85%” (JNK1 mRNA time course, t=0 h after 4 hour treatment); “about 95%” (JNK1 mRNA time course, t=4 h); “greater than or equal to 80%” (JNK1 mRNA time course, t=12 h); “greater than or equal to 80%” (JNK1 mRNA time course, t=48 h); at least 60% (JNK1 mRNA time course, time 272 h [sic] (t=72 h in text)).

Source of the values: patent US20040029823A1, “Antisense oligonucleotide compositions and methods for the modulation of JNK proteins” (priority 1997, published 2004).
